Data reported in ChEMBL document CHEMBL4304811, “Development of a Water-Soluble Indolylmaleimide Derivative IM-93 Showing Dual Inhibition of Ferroptosis and NETosis” (ACS Med Chem Lett, 2019).
Calls of active or inactive are those of the source. No cut-off for these calls is given here.

Legend:
[1] = target: Cyclin-dependent kinase-like 5 (Homo sapiens) (UniProt O76039); experiment: Binding affinity to wild-type human partial length CDKL5 (M1 to S337 residues) expressed in mammalian expression system assessed as residual binding level at 10 uM by Kinomescan method relative to control
Chain of Cyclin-dependent kinase-like 5 (Homo sapiens) (O76039 whole entry, the tested form may be a part): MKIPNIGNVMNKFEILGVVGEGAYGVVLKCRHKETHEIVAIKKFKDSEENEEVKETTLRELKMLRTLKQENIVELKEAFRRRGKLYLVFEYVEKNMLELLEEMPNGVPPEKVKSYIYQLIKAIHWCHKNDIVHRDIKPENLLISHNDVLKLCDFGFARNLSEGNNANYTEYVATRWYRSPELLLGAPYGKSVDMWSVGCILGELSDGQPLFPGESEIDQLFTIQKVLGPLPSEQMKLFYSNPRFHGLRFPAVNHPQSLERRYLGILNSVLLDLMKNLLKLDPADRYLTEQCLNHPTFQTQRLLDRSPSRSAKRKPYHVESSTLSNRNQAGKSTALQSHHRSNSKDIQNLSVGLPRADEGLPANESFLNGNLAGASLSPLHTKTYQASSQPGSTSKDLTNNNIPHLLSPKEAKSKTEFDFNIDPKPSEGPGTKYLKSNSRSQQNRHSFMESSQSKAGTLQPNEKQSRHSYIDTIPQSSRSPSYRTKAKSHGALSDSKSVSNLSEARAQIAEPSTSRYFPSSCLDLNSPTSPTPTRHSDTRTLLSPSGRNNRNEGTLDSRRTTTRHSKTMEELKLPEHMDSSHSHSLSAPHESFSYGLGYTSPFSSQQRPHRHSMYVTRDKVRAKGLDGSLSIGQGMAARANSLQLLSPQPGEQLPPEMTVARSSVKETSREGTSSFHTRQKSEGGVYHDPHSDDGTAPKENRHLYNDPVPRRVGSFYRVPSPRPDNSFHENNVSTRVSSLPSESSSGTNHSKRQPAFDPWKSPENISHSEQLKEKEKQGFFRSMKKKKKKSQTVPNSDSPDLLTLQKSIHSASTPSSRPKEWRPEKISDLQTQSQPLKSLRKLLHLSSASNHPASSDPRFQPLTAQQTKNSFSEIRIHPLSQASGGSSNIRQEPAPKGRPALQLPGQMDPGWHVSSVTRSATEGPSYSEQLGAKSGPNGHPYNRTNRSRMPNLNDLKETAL

[2] = target: Receptor tyrosine-protein kinase erbB-2 (Homo sapiens) (UniProt P04626); experiment: Binding affinity to wild-type human partial length ERBB2 (K646 to V1225 residues) expressed in mammalian expression system assessed as residual binding level at 10 uM by Kinomescan method relative to control
Chain of Receptor tyrosine-protein kinase erbB-2 (Homo sapiens) (P04626 whole entry, the tested form may be a part): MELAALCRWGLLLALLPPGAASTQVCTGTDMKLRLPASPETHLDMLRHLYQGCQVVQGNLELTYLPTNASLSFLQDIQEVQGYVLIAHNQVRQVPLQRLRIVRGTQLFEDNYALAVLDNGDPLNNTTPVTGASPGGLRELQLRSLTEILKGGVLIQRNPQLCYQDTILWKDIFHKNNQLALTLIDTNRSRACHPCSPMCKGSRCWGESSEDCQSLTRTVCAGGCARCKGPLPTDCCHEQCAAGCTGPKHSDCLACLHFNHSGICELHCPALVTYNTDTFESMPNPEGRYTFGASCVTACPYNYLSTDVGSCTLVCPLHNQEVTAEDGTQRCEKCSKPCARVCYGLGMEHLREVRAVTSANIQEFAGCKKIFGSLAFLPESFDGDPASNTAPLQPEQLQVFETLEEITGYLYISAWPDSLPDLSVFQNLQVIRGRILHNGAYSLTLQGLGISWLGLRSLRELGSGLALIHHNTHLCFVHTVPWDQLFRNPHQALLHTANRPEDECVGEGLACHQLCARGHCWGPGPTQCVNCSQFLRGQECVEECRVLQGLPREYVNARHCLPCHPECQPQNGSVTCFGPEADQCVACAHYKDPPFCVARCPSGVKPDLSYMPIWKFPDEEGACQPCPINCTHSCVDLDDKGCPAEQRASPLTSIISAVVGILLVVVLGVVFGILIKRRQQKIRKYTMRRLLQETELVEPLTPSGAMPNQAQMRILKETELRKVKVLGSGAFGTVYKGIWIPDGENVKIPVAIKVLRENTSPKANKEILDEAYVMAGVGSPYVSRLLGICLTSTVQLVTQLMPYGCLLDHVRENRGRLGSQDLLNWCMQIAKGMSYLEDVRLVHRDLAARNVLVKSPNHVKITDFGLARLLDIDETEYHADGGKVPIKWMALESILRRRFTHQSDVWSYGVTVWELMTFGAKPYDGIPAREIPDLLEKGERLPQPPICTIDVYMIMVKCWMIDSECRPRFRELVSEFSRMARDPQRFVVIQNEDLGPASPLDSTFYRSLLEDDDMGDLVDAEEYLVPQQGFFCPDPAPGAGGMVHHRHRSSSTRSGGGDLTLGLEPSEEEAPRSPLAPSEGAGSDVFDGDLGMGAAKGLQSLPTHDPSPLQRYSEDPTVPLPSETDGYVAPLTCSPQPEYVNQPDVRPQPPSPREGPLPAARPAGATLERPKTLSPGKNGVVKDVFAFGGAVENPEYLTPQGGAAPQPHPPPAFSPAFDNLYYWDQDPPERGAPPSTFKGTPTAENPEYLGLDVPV

[3] = target: Tyrosine-protein kinase Fyn (Homo sapiens) (UniProt P06241); experiment: Binding affinity to wild-type human partial length FYN (T243 to L534 residues) expressed in bacterial expression system assessed as residual binding level at 10 uM by Kinomescan method relative to control
Chain of Tyrosine-protein kinase Fyn (Homo sapiens) (P06241 2-537 limits assumed): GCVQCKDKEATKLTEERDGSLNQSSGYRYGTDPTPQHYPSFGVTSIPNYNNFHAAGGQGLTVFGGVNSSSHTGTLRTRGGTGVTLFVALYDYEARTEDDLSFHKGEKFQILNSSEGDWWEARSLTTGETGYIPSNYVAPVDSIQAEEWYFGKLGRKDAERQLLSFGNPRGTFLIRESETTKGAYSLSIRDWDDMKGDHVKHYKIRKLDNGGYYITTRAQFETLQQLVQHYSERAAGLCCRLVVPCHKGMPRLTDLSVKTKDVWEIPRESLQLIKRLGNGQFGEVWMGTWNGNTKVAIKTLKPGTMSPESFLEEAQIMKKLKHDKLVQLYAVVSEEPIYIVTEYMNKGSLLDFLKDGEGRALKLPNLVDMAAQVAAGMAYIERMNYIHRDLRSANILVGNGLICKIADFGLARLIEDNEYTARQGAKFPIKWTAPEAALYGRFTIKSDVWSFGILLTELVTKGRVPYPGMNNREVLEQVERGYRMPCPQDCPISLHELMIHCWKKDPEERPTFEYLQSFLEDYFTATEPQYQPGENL

[4] = system: Mast/stem cell growth factor receptor Kit (Homo sapiens), P10721 [D816H]; experiment: Binding affinity to human partial length KIT D816H mutant (I571 to D952 residues) expressed in mammalian expression system assessed as residual binding level at 10 uM by Kinomescan method relative to control
[5] = target: Serine/threonine-protein kinase N1 (Homo sapiens) (UniProt Q16512); experiment: Binding affinity to wild-type human partial length PKN1 (E598 to C948 residues) expressed in bacterial expression system assessed as residual binding level at 10 uM by Kinomescan method relative to control
Chain of Serine/threonine-protein kinase N1 (Homo sapiens) (Q16512 2-942 limits assumed): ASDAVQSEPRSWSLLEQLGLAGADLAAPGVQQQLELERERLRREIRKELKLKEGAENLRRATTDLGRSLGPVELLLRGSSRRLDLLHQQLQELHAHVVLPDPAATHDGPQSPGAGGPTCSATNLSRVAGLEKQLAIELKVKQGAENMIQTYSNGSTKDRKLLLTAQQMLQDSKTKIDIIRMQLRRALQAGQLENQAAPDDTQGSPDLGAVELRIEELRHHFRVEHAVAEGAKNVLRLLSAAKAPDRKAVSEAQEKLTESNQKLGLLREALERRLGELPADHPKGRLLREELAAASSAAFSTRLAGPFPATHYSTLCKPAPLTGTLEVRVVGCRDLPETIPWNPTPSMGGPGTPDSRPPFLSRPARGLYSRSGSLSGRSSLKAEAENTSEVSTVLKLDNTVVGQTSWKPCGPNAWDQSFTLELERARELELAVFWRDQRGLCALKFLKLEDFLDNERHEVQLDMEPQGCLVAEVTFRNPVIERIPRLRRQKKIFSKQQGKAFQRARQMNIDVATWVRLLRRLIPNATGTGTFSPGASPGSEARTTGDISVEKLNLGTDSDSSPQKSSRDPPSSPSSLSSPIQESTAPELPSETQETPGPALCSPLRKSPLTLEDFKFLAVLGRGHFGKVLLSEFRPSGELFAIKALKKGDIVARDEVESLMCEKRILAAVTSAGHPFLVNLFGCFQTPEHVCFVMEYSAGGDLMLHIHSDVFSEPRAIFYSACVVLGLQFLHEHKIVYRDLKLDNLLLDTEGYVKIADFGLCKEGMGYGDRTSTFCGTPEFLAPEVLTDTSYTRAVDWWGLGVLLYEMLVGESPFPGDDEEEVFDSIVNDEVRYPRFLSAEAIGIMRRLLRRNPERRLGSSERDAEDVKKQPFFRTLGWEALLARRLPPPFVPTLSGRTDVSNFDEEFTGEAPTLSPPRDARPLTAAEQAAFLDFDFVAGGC

[6] = target: Receptor-interacting serine/threonine-protein kinase 1 (Homo sapiens) (UniProt Q13546); experiment: Binding affinity to wild-type human partial length RIPK1 (M1 to K305 residues) expressed in bacterial expression system assessed as residual binding level at 10 uM by Kinomescan method relative to control
Chain of Receptor-interacting serine/threonine-protein kinase 1 (Homo sapiens) (Q13546 whole entry, the tested form may be a part): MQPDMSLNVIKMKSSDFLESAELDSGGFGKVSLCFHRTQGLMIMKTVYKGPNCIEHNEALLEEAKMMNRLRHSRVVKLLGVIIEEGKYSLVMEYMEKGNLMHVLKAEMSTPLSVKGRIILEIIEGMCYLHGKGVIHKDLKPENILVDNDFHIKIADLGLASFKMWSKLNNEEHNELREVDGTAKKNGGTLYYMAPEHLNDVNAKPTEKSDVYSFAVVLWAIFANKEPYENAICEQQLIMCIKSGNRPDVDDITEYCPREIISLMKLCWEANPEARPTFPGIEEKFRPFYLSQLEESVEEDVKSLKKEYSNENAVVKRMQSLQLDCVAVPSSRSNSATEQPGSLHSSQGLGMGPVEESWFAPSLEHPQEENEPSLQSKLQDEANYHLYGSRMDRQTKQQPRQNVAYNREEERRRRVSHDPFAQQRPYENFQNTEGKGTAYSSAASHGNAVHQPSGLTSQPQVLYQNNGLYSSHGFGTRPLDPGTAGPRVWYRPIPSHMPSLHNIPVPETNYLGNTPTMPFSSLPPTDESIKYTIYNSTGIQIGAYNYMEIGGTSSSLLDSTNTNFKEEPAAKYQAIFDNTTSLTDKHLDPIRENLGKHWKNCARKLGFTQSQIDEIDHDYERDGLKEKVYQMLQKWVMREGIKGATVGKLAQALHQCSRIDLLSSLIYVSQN

[7] = target: Proto-oncogene tyrosine-protein kinase Src (Homo sapiens) (UniProt P12931); experiment: Binding affinity to wild-type human partial length SRC (L240 to L536 residues) expressed in bacterial expression system assessed as residual binding level at 10 uM by Kinomescan method relative to control
Chain of Proto-oncogene tyrosine-protein kinase Src (Homo sapiens) (P12931 2-536 limits assumed): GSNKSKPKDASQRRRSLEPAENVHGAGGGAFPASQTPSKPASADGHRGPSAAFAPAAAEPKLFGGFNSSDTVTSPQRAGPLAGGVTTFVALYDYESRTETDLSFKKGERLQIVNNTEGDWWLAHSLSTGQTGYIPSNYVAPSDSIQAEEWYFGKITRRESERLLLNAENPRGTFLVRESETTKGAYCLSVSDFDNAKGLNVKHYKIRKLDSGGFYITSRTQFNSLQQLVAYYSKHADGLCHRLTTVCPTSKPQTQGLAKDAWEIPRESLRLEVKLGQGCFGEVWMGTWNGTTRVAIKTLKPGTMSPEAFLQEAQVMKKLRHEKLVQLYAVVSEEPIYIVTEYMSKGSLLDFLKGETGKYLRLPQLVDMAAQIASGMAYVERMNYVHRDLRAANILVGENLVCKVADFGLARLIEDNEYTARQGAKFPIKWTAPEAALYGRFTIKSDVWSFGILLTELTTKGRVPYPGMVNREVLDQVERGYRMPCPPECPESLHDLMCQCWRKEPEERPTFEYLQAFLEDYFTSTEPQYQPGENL

[8] = system: Neutrophil; experiment: Inhibition of PMA-induced NETosis in human neutrophils assessed as inhibition of ROS production at 25 uM pretreated for 25 mins followed by PMA stimulation and measured after 20 mins by DCFH-DA based flow cytometry; type: functional, cell-based

For CC(C)N1C(=O)C(NCCCN(C)C)=C(c2cn(C)c3ccccc23)C1=O.Cl, the Activity [1] was 96%, the Activity [2] was 92% and the Activity [3] was 100%. The Activity [4] was 96%, the Activity [5] was 100% and the Activity [6] was 96%. For the same molecule, the Activity [7] was 93% and the inhibition [8] was “inactive”.
